Reference: paper PMC2766550 (Peptides, 2009)
Square brackets hold non-standard residues; d marks the D form. Ends that are not written are not given here. Peptide text beside a SMILES is read from it. * marks the point of attachment. dPhe(F5) = N[C@H](Cc1c(F)c(F)c(F)c(F)c1F)C(=O)O; pGlu = O=C1CC[C@@H](C(=O)O)N1; Nle = CCCC[C@H](N)C(=O)O; βAla = NCCC(=O)O; NHPr = CCCN*

What was measured:
hGRP-receptor [1] = molecular target: T1, hGRP-receptor (Homo sapiens, UniProt P30550); experiment: Whole cell radioligand binding, HuTu-80 cells
T1 sequence (P30550 whole entry): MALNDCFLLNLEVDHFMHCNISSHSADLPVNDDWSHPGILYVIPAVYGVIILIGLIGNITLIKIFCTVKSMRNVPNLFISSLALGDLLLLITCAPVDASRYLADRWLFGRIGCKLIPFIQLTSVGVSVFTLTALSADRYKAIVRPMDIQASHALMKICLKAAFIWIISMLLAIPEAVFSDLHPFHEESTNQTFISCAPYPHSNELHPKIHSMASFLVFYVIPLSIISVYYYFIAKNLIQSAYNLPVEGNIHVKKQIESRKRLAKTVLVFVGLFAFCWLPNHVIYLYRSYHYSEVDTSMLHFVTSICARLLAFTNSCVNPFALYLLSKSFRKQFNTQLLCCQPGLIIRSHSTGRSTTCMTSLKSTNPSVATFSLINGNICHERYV

hNMB-receptor [2] = molecular target: T2, hNMB-receptor (Homo sapiens, UniProt P28336); experiment: Whole cell radioligand binding, hNMB-receptor transfected Balb 3T3 cells; details: IC50 hNMB-R Balb-3T3, hNMB-receptor transfected Balb 3T3 cells; 125I-[D-Tyr0]NMB, 1 h, 22°C; mean ± S.E.
T2 sequence (P28336 whole entry): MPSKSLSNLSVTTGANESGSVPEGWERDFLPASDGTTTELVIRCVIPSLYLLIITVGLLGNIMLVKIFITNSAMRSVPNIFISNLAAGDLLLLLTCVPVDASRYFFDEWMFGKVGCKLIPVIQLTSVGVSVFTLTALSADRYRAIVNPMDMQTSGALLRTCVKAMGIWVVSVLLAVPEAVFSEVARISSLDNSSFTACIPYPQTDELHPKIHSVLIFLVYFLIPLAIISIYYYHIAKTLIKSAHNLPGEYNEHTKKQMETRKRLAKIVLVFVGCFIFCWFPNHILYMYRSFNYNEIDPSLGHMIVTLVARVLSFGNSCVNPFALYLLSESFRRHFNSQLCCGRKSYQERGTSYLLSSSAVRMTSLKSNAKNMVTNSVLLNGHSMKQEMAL

hNMB-receptor [3] = molecular target: T2, hNMB-receptor; experiment: Whole cell radioligand binding, hNMB-receptor transfected NCI-H1299 cells
hBRS-3 receptor = molecular target: T3, hBRS-3 receptor (Homo sapiens, UniProt P32247); experiment: Whole cell radioligand binding, hBRS-3 transfected Balb 3T3 cells
T3 sequence (P32247 1-399): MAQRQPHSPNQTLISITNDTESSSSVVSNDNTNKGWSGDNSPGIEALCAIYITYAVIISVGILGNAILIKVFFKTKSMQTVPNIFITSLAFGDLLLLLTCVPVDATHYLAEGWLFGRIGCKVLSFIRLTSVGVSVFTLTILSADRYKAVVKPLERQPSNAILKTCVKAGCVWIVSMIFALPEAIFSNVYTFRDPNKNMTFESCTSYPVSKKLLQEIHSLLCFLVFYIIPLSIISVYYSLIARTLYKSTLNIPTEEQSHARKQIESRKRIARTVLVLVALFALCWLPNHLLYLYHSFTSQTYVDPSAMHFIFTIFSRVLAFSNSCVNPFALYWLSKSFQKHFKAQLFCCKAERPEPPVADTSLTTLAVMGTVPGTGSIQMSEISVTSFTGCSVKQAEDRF

hGRP-receptor [4] = molecular target: T1, hGRP-receptor; experiment: [3H]inositol phosphate generation, hGRP-receptor transfected Balb 3T3 cells; assay type: cell-based
hGRP-receptor [5] = molecular target: T1, hGRP-receptor; experiment: [3H]inositol phosphate generation, HuTu-80 cells; assay type: cell-based

## CCCCCCNC(=O)[C@H](CC(C)C)NC(=O)[C@H](Cc1cnc[nH]1)NC(=O)CNC(=O)[C@@H](NC(=O)[C@H](C)NC(=O)[C@H](Cc1c[nH]c2ccccc12)NC(=O)[C@H](CCC(N)=O)NC(=O)[C@H](N)Cc1ccccc1)C(C)C [Peptide 15, [D-Phe^6]Bn-(6-13)Hexylamide]
hGRP-receptor [1]
  IC50: 2.19 ± 0.04 nM
hNMB-receptor [2]
  IC50: 8.14 ± 0.4 µM
hNMB-receptor [3]
  IC50: > 10 µM
hBRS-3 receptor
  IC50: 3.25 ± 0.06 µM
hGRP-receptor [4]
  IC50: 380 ± 31 nM
hGRP-receptor [5]
  IC50: 204 ± 14 nM

## COC(=O)[C@H]1CCCN1C(=O)[C@H](Cc1c[nH]cn1)NC(=O)[C@@H](C)NC(=O)[C@@H](NC(=O)[C@H](C)NC(=O)[C@H](Cc1c[nH]c2ccccc12)NC(=O)[C@H](Cc1c[nH]cn1)NC(=O)[C@H](N)Cc1c(F)c(F)c(F)c(F)c1F)C(C)C [Peptide 19, [D-F-5-Phe^6, His^7, D-Ala^11, D-Pro^13]Bn(6-13)ME] (H-[dPhe(F5)]HWAV[dA]H[dP]-OMe)
hNMB-receptor [2]
  IC50: > 10 µM
hBRS-3 receptor
  IC50: > 10 µM

## CCCC[C@H](NC(=O)[C@H](Cc1ccccc1)NC(=O)[C@H](Cc1cnc[nH]1)NC(=O)CCNC(=O)[C@@H](NC(=O)[C@H](C)NC(=O)[C@H](Cc1c[nH]c2ccccc12)NC(=O)[C@H](CCC(N)=O)NC(=O)[C@H](N)Cc1ccc(O)cc1)C(C)C)C(N)=O [Peptide 35, [D-Tyr^6, β-Ala^11,Phe^13, Nle^14]Bn-(6-14), reference compound] (H-[dY]QWAV[βAla]HF[Nle]-NH2)
hNMB-receptor [2]
  IC50: 0.00031 ± 1e-05 µM
hBRS-3 receptor
  IC50: 0.00055 ± 3e-05 µM

## CSCC[C@H](NC(=O)[C@H](CC(C)C)NC(=O)[C@H](Cc1c[nH]cn1)NC(=O)CNC(=O)[C@@H](NC(=O)[C@H](C)NC(=O)[C@H](Cc1c[nH]c2ccccc12)NC(=O)[C@H](Cc1c[nH]cn1)NC(=O)[C@H](CC(N)=O)NC(=O)CNC(=O)[C@H](CCCNC(=N)N)NC(=O)[C@@H]1CCCN1C(=O)[C@H](Cc1ccc(O)cc1)NC(=O)[C@H](CCSC)NC(=O)[C@H](CCCCN)NC(=O)[C@@H](NC(=O)[C@H](CC(C)C)NC(=O)[C@@H](NC(=O)[C@@H](NC(=O)CNC(=O)CNC(=O)CNC(=O)[C@H](C)NC(=O)[C@@H]1CCCN1C(=O)[C@H](CC(C)C)NC(=O)[C@@H]1CCCN1C(=O)[C@@H](N)C(C)C)[C@@H](C)O)C(C)C)[C@@H](C)O)C(C)C)C(N)=O [GRP, gastrin-releasing peptide, reference compound]
hBRS-3 receptor
  fold lower affinity for hBRS3 than for the ligand's own receptor: > 10,000 fold

## CCCNC(=O)[C@H](Cc1ccccc1)NC(=O)[C@H](Cc1c[nH]cn1)NC(=O)CNC(=O)[C@@H](NC(=O)[C@H](C)NC(=O)[C@H](Cc1c[nH]c2ccccc12)NC(=O)[C@H](CCC(N)=O)NC(=O)[C@H](N)Cc1ccccc1)[C@@H](C)O [Peptide 13, [D-Phe^6,Thr^10, Phe^13]Bn(6-13)PA] (H-[dF]QWATGHF-NHPr)
hNMB-receptor [2]
  IC50: 1.32 ± 0.03 µM
hBRS-3 receptor
  IC50: > 10 µM

## NQWAVGHL-NH2 [Peptide 9, Bn(6-13)NH2]
hNMB-receptor [2]
  IC50: > 10 µM
hBRS-3 receptor
  IC50: > 10 µM

## CCNC(=O)[C@H](CC(C)C)NC(=O)[C@H](Cc1c[nH]cn1)NC(=O)CNC(=O)[C@@H](NC(=O)[C@H](C)NC(=O)[C@H](Cc1c[nH]c2ccccc12)NC(=O)[C@H](CCC(N)=O)NC(=O)[C@H](N)Cc1ccccc1)C(C)C [Peptide 10, [D-Phe^6]Bn(6-13)Ethylamide]
hGRP-receptor [1]
  IC50: 2.22 ± 0.13 nM
hNMB-receptor [2]
  IC50: > 10 µM
hNMB-receptor [3]
  IC50: > 10 µM
hBRS-3 receptor
  IC50: > 10 µM
hGRP-receptor [4]
  IC50: 52.5 ± 4.3 nM
hGRP-receptor [5]
  IC50: 43.6 ± 3.6 nM

## CC(C)C[C@H](NC(=O)[C@H](CC(C)C)NC(=O)[C@@H](Cc1ccccc1)NC(=O)CNC(=O)[C@@H](NC(=O)[C@H](C)NC(=O)[C@H](Cc1c[nH]c2ccccc12)NC(=O)[C@H](CCC(N)=O)NC(=O)[C@H](CC(N)=O)NC(=O)CNC(=O)[C@H](CC(C)C)NC(=O)[C@H](CCCNC(=N)N)NC(=O)[C@H](CCC(N)=O)NC(=O)[C@@H]1CCC(=O)N1)C(C)C)C(N)=O [Peptide 1, [D-Phe^12, Leu^14]Bn] ([pGlu]QRLGNQWAVG[dF]LL-NH2)
hNMB-receptor [2]
  IC50: > 10 µM
hBRS-3 receptor
  IC50: > 10 µM

## CCCCCCCNC(=O)[C@H](CC(C)C)NC(=O)[C@H](Cc1c[nH]cn1)NC(=O)CNC(=O)[C@@H](NC(=O)[C@H](C)NC(=O)[C@H](Cc1c[nH]c2ccccc12)NC(=O)[C@H](CCC(N)=O)NC(=O)[C@H](N)Cc1ccccc1)C(C)C [Peptide 16, [D-Phe^6]Bn(6-13)Heptylamide]
hNMB-receptor [2]
  IC50: 6.1 ± 0.63 µM
hBRS-3 receptor
  IC50: > 10 µM
